Source: patent US20110218343A1, “SMALL MOLECULE INHIBITORS OF ROTAMASE ENZYME ACTIVITY” (GLIAMED, INC., priority 1995, published 2011)

Target: FKBP (Homo sapiens, UniProt P62942)
Assay: FKBP rotamase (peptidyl-prolyl isomerase) inhibition, chymotrypsin-coupled assay
Format: biochemical
Details: apparent Ki; cis-trans isomerization of model substrate N-succinyl-Ala-Ala-Pro-Phe-p-nitroanilide, absorbance at 390 nm

Sequence of FKBP (P62942 whole entry): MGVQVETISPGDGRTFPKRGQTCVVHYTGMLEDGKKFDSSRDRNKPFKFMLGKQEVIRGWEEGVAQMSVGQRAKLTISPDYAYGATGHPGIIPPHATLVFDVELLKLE

Row | Ki [nM] | Structure (SMILES)
1 | 9000 | CCOC(=O)[C@H](Cc1ccccc1)NC(=O)[C@@H]1CCCN1C(=O)C(=O)C(C)(C)CC [Example 24, 1-[1-(3,3-dimethyl-1,2-dioxopentyl)-L-proline]-L-phenylalanine ethyl ester]

Test system: chick dorsal root ganglia (DRG) explants
Assay: Neurite outgrowth in chick dorsal root ganglion cultures
Format: cell-based
Details: whole ganglion explants from ten day chick embryos; neurites counted 48 hours after drug treatment
Procedure: Dorsal root ganglia were dissected from chick embryos of ten day gestation. Whole ganglion explants were cultured on thin layer Matrigel-coated 12 well plates with Liebovitz L15 plus high glucose media supplemented with 2 mM glutamine and 10% fetal calf serum, and also containing 10 μM cytosine .β-D arabinofuranoside (Ara C) at 37° C. in an environment containing 5% CO2. Twenty-four hours later, the DRGs were treated with various concentrations of nerve growth factor, immunophilin ligands or combinations of NFG plus drugs. Forty-eight hours after drug treatment, the ganglia were visualized under phase contrast or Hoffman Modulation contrast with a Zeiss Axiovert inverted microscope. Photomicrographs of the explants were made, and neurite outgrowth was quantitated. Neurites longer than the DRG diameter were counted as positive, with total number of neurites quantitated per each experimental condition. Three to four DRGs are cultured per well, and each treatment was performed in duplicate.

Row | Structure (SMILES) | ED50 (Neurite Outgrowth in Chick DRG) [nM]
2 | CCC(C)(C)C(=O)C(=O)N1CCC[C@H]1C(=O)OC/C=C/c1ccc(Cl)c(Cl)c1 [Example 8, 3-(4,5-Dichlorophenyl)-1-prop-2-(E)-enyl(2S) -1-(3,3-dimethyl-1,2-dioxopentyl)-2-pyrrolidinecarboxylate] | 850
3 | CCC(C)(C)C(=O)C(=O)N1CCC[C@H]1C(=O)OCCCc1ccccc1 [Example 4, 3-phenyl-1-propyl(2S)-1-(3,3-dimethyl-1,2-dioxopentyl)-2-pyrrolidinecarboxylate] | 53
4 | CCC(C)(C)C(=O)C(=O)N1CCC[C@H]1C(=O)OCCCc1cc(OC)c(OC)c(OC)c1 [Example 6, 3-(3,4,5-Trimethoxyphenyl)-1-propyl(2S)-1-(3,3-dimethyl-1,2-dioxopentyl)-2-pyrrolidinecarboxylate] | 149
5 | CCC(C)(C)C(=O)C(=O)N1CCC[C@H]1C(=O)OC/C=C/c1cc(OC)c(OC)c(OC)c1 [Example 7, 3-(3,4,5-Trimethoxyphenyl)-1-prop-2-(E)-enyl(2S)-1-(3,3-dimethyl-1,2-dioxopentyl)-2-pyrrolidinecarboxylate] | 190
6 | CCC(C)(C)C(=O)C(=O)N1CCC[C@H]1C(=O)OC/C=C/c1ccc2c(c1)OCO2 [Example 9, 3-(4,5-Methylenedioxyphenyl)-1-prop-2-(E)-enyl(2S)-1-(3,3-dimethyl-1,2-dioxopentyl)-2-pyrrolidinecarboxylate] | 75
